Values quoted from earlier work, collected in patent US20060148833A1, “Use of chymase inhibitors for the prevention and/or treatment of arterio-venous graft failure” (priority 2002, published 2006).

Experiments:
dog carotid artery = dog carotid artery balloon injury model
vein graft = conditions: dog model of vein graft injury
[1] = system: balloon-injured dog coronary arteries; conditions: by suppression of vascular chymase levels
[2] = system: restenosis following PTCA; conditions: oral administration over three months, clinical trials

SMILES	intimal hyperplasia (dog carotid artery)	vascular proliferation and subsequent neointima formation (vein graft)	neointima formation [1]	rate of restenosis following PTCA [2]
O=CNc1cnc(-c2ccccc2)n(CC(=O)NC(Cc2ccccc2)C(=O)C(=O)CCCOc2ccccn2)c1=O (stereo not shown) [NK3201, 2-(5-formylamino-6-oxo-3-phenyl-1,6,-dihydropyrmidine-1-yl)-N-{2,3-dioxo-6-(2-pyridyloxy)-1-phenylmethyl}hexyl acetamide]	inhibit intimal hyperplasia	inhibit vascular proliferation and subsequent neointima formation		
COc1ccc(C=CC(=O)Nc2ccccc2C(=O)O)cc1OC [Tranilast, N-(3,4-dimethoxycinnamoyl) anthranilic acid]			suppresses neointima formation	markedly reduce the rate of restenosis
